From patent US10604512B2, “3-(1H-indol-2-yl)-1H-indazoles and therapeutic uses thereof” (Samumed, LLC, priority 2015, dated 2020)

Tests used:
IL-6 = test: Inhibition of IL-6 in LPS-stimulated THP-1 human monocyte cells (HTRF); format: cell-based; conditions: for EC50: IL-6 inhibition, LPS-stimulated THP-1 cells, HTRF; for inhibition at 10 µM: THP-1, printed beside >10 μM EC50, top concentration 10 μM, meaning not given, read-out: percentage in parentheses after EC50 >10
How it was run: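 THP-1 cells serum-reduced (1% FBS, 24 h), then 5000 cells/well preincubated 2 h with compound (10-point 1:3 series from 10 μM, 0.1% DMSO) before 500 ng/mL LPS for 22 h at 37 °C. Secreted IL-6 quantified by HTRF 665/620 ratio; DMSO-normalised duplicates fitted to four-parameter EC50; above 10 μM, % inhibition at 10 μM given.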

[1] = system: Wnt activity (Sp5-Luc reporter, TCF/LEF binding sites) in SW480 colon carcinoma cells; test: Screening assay for Wnt activity: Sp5-Luc reporter gene assay in stably transduced SW480 colon carcinoma cells; format: cell-based; conditions: Homo sapiens; for EC50: overnight incubation, 10-point curve from 10 μM
How it was run: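 SW480 cells stably transduced with a luciferase reporter driven by an Sp5 promoter of eight TCF/LEF sites were plated at 4,000 cells/well in 1% FBS medium. They were exposed overnight at 37° C to a 10-point 1:3 dilution series from 10 μM (0.1% DMSO). Luminescence was normalized to DMSO for four-parameter EC50, or percent inhibition at 10 μM.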

SMILES	EC50 (IL-6) [nM]	EC50 [1] [nM]	inhibition at 10 µM ([1]; at 10 μM, given where EC50 >10 μM, read-out: percent inhibition at 10 μM) [%]	inhibition at 10 µM (IL-6) [%]
O=C(Nc1cncc(-c2ccc3[nH]nc(-c4cc5c(-c6cccc(F)c6)cccc5[nH]4)c3c2)c1)C1CCCCC1 [Compound 23, N-(5-(3-(4-(3-Fluorophenyl)-1H-indol-2-yl)-1H-indazol-5-yl)pyridin-3-yl) cyclohexanecarboxamide]	> 10000	595		34.2
CC(C)CC(=O)Nc1cncc(-c2ccc3[nH]nc(-c4cc5c(-c6ccc(F)cc6)cccc5[nH]4)c3c2)c1 [Compound 30, N-(5-(3-(4-(4-Fluorophenyl)-1H-indol-2-yl)-1H-indazol-5-yl)pyridin-3-yl)-3-methylbutanamide]	> 10000	420		27.9
O=C(Nc1cncc(-c2ccc3[nH]nc(-c4cc5c(-c6ccc(F)cc6)cccc5[nH]4)c3c2)c1)c1ccccc1 [Compound 39, N-(5-(3-(4-(4-Fluorophenyl)-1H-indol-2-yl)-1H-indazol-5-yl)pyridin-3-yl) benzamide]	> 10000	530		48.3
CN(C)Cc1cncc(-c2ccc3[nH]nc(-c4cc5c(-c6ccc(F)cc6)cccc5[nH]4)c3c2)c1 [Compound 41, 1-(5-(3-(4-(4-Fluorophenyl)-1H-indol-2-yl)-1H-indazol-5-yl)pyridin-3-yl)-N,N-dimethylmethanamine]	> 10000	165		22.9
Fc1ccc(-c2cccc3[nH]c(-c4n[nH]c5ccc(-c6cncc(CN7CCCC7)c6)cc45)cc23)cc1 [Compound 42, 3-(4-(4-Fluorophenyl)-1H-indol-2-yl)-5-(5-(pyrrolidin-1-ylmethyl)pyridin-3-yl)-1H-indazole]	> 10000	845		47.8
CC(C)(C)CC(=O)Nc1cncc(-c2ccc3[nH]nc(-c4cc5c(-c6ccc(F)cc6)cccc5[nH]4)c3c2)c1 [Compound 44, N-(5-(3-(4-(4-Fluorophenyl)-1H-indol-2-yl)-1H-indazol-5-yl)pyridin-3-yl)-3,3-dimethylbutanamide]	> 10000	1150		47.9
CCCC(=O)Nc1cncc(-c2ccc3[nH]nc(-c4cc5c(-c6ccc(F)cc6)cccc5[nH]4)c3c2)c1 [Compound 45, N-(5-(3-(4-(4-Fluorophenyl)-1H-indol-2-yl)-1H-indazol-5-yl)pyridin-3-yl)butyramide]	> 10000	475		44.6
CC(C)(C)CC(=O)Nc1cncc(-c2ccc3[nH]nc(-c4cc5c(-c6ccccc6F)cccc5[nH]4)c3c2)c1 [Compound 72, N-(5-(3-(4-(2-Fluorophenyl)-1H-indol-2-yl)-1H-indazol-5-yl)pyridin-3-yl)-3,3-dimethylbutanamide]	> 10000	4260		35.3
O=C(Nc1cncc(-c2ccc3[nH]nc(-c4cc5c(-c6ccccc6F)cccc5[nH]4)c3c2)c1)C1CCCC1 [Compound 78, N-(5-(3-(4-(2-Fluorophenyl)-1H-indol-2-yl)-1H-indazol-5-yl)pyridin-3-yl) cyclopentanecarboxamide]	> 10000	1060		54.1
c1cncc(-c2cccc3[nH]c(-c4n[nH]c5ccc(-c6cncc(CN7CCCCC7)c6)cc45)cc23)c1 [Compound 99, 5-(5-(Piperidin-1-ylmethyl)pyridin-3-yl)-3-(4-(pyridin-3-yl)-1H-indol-2-yl)-1H-indazole]	> 10000	5000		50.5

Now from value to compound, other results behind:

EC50 (IL-6) [nM]	EC50 [1] [nM]	SMILES	inhibition at 10 µM ([1]; at 10 μM, given where EC50 >10 μM, read-out: percent inhibition at 10 μM) [%]	inhibition at 10 µM (IL-6) [%]
4570	57	CCC(=O)Nc1cncc(-c2ccc3[nH]nc(-c4cc5c(-c6cccc(F)c6)cccc5[nH]4)c3c2)c1 [Compound 1, N-(5-(3-(4-(3-Fluorophenyl)-1H-indol-2-yl)-1H-indazol-5-yl)pyridin-3-yl) propionamide]		
58	275	Fc1cccc(-c2cccc3[nH]c(-c4n[nH]c5ccc(-c6cccnc6)cc45)cc23)c1 [Compound 4, 3-(4-(3-Fluorophenyl)-1H-indol-2-yl)-5-(pyridin-3-yl)-1H-indazole]		
36	> 10000	CN(C)Cc1cncc(-c2ccc3[nH]nc(-c4cc5c(-c6cccc(F)c6)cccc5[nH]4)c3c2)c1 [Compound 13, 1-(5-(3-(4-(3-Fluorophenyl)-1H-indol-2-yl)-1H-indazol-5-yl)pyridin-3-yl)-N,N-dimethylmethanamine]	22.5	
> 10000	125	CCCC(=O)Nc1cncc(-c2ccc3[nH]nc(-c4cc5c(-c6cccc(F)c6)cccc5[nH]4)c3c2)c1 [Compound 17, N-(5-(3-(4-(3-Fluorophenyl)-1H-indol-2-yl)-1H-indazol-5-yl)pyridin-3-yl) butyramide]		24.7
> 10000	100	O=C(Nc1cncc(-c2ccc3[nH]nc(-c4cc5c(-c6cccc(F)c6)cccc5[nH]4)c3c2)c1)C1CC1 [Compound 20, N-(5-(3-(4-(3-Fluorophenyl)-1H-indol-2-yl)-1H-indazol-5-yl)pyridin-3-yl) cyclopropanecarboxamide]		44.7
102	440	Fc1cccc(-c2cccc3[nH]c(-c4n[nH]c5ccc(-c6ccccn6)cc45)cc23)c1 [Compound 28, 3-(4-(3-Fluorophenyl)-1H-indol-2-yl)-5-(pyridin-2-yl)-1H-indazole]		
277	655	CC(C)(C)C(=O)Nc1cncc(-c2ccc3[nH]nc(-c4cc5c(-c6ccc(F)cc6)cccc5[nH]4)c3c2)c1 [Compound 36, N-(5-(3-(4-(4-Fluorophenyl)-1H-indol-2-yl)-1H-indazol-5-yl)pyridin-3-yl) pivalamide]		
488	1780	Fc1ccc(-c2cccc3[nH]c(-c4n[nH]c5ccc(-c6cncnc6)cc45)cc23)cc1 [Compound 55, 3-(4-(4-Fluorophenyl)-1H-indol-2-yl)-5-(pyrimidin-5-yl)-1H-indazole]		
3460	53	Nc1cncc(-c2ccc3[nH]nc(-c4cc5c(-c6ccccc6F)cccc5[nH]4)c3c2)c1 [Compound 59, 5-(3-(4-(2-Fluorophenyl)-1H-indol-2-yl)-1H-indazol-5-yl)pyridin-3-amine]		
9930	4180	CCNCc1cncc(-c2ccc3[nH]nc(-c4cc5c(-c6ccccc6F)cccc5[nH]4)c3c2)c1 [Compound 62, N-((5-(3-(4-(2-Fluorophenyl)-1H-indol-2-yl)-1H-indazol-5-yl)pyridin-3-yl)methyl)ethanamine]		
204	65	CCC(=O)Nc1cncc(-c2ccc3[nH]nc(-c4cc5c(-c6cccnc6)cccc5[nH]4)c3c2)c1 [Compound 85, N-(5-(3-(4-(Pyridin-3-yl)-1H-indol-2-yl)-1H-indazol-5-yl)pyridin-3-yl) propionamide]		
23	500	c1cncc(-c2ccc3[nH]nc(-c4cc5c(-c6cccnc6)cccc5[nH]4)c3c2)c1 [Compound 88, 5-(Pyridin-3-yl)-3-(4-(pyridin-3-yl)-1H-indol-2-yl)-1H-indazole]		
34	85	CC(C)C(=O)Nc1cncc(-c2ccc3[nH]nc(-c4cc5c(-c6cccnc6)cccc5[nH]4)c3c2)c1 [Compound 93, N-(5-(3-(4-(Pyridin-3-yl)-1H-indol-2-yl)-1H-indazol-5-yl)pyridin-3-yl) isobutyramide]		
